Where “and” joins values, the source holds several entries; their conditions need not be identical. Equal entries are not always repeated.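 Assay format: 96-well plates, 48-hour exposure. GI50 is the concentration that inhibits growth by half. TGI denotes the concentration required for complete inhibition of growth.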 Where a SMILES comes first, the peptide text is derived from it. The star is where a group is joined. Boc = CC(C)(C)OC(=O)*; Bn = c1ccc(C*)cc1
How the values were obtained:
Assay in all cases: inhibition of tumour cell growth, NCI panel, 48 h
HOP-92 NSCLC = tested on: HOP-92 NSCLC
DU-145 prostate = tested on: DU-145 prostate
HT29 colon = tested on: HT29 colon
SK-MEL-28 melanoma = tested on: SK-MEL-28 melanoma
HCC-2998 colon = tested on: HCC-2998 colon
CCRF-CEM leukemia = tested on: CCRF-CEM leukemia
MCF7 breast = tested on: MCF7 breast
786-0 renal = tested on: 786-0 renal
SNB-75 CNS = tested on: SNB-75 CNS
OVCAR-3 ovarian = tested on: OVCAR-3 ovarian

Structure (SMILES)	TGI (HOP-92 NSCLC)	TGI (DU-145 prostate)	TGI (HT29 colon)	TGI (SK-MEL-28 melanoma)	TGI (HCC-2998 colon)	TGI (CCRF-CEM leukemia)	TGI (MCF7 breast)	TGI (786-0 renal)	TGI (SNB-75 CNS)	TGI (OVCAR-3 ovarian)	GI50 (SK-MEL-28 melanoma)	GI50 (HCC-2998 colon)	GI50 (CCRF-CEM leukemia)	GI50 (SNB-75 CNS)	GI50 (OVCAR-3 ovarian)
C(#CC1(Nc2ccccc2)CCN(Cc2ccccc2)CC1)C1(Nc2ccccc2)CCN(Cc2ccccc2)CC1	33.9 µM	> 56.2 µM	39.4 µM	26.7 µM	> 100 µM	37.3 µM	> 56.2 µM	39.5 µM	29.7 µM	> 97.1 µM					
CCCCCCCCCCOCCOCCOCCOCCCCC(O)CCCCCCCC1=C[C@H](C)OC1=O (some centres undefined)	29.6 µM	41.3 µM	24.4 µM	25.3 µM	27 µM	51.1 µM	20 µM	45.5 µM	24.7 µM	33.8 µM					
O=C(Nc1cccc(C(=O)NCCCO)c1)/C(=C/c1ccccc1)NC(=O)c1ccccc1	> 100 µM	> 100 µM	> 100 µM	> 100 µM	> 100 µM	> 100 µM	> 100 µM	> 100 µM	> 100 µM	> 100 µM					
CNC(=O)C(CC(C)C)NC(=O)C(C)NC(=O)C(Cc1ccc(OCc2ccccc2)cc1)NC(=O)C(COCc1ccccc1)NC(=O)OC(C)(C)C (centres undefined) (Boc-S(Bn)Y(Bn)AL-NHMe; configuration not given here)	> 80.8 µM and 51.7 µM	> 100 µM	> 38.9 µM and 30.9 µM	> 100 µM and 30.9 µM	> 87.3 µM and 9.17 µM	18.9 µM and 39.6 µM	35.5 µM and 26.2 µM	54.9 µM and 39.4 µM	> 31.6 µM and 22.9 µM	> 100 µM and 44 µM	> 62.5 µM and 14.1 µM	29.3 µM and 3.13 µM	4.39 µM and 10.5 µM	18.9 µM and 9 µM	42.1 µM and 19.1 µM
Cc1cccc(C)c1N=Nc1ccc(O)c(CN(C)C)c1	> 100 µM	> 100 µM	69.6 µM	60.6 µM	48.8 µM	> 100 µM	> 100 µM	> 100 µM	> 100 µM	> 100 µM					
CC1=N[C@@](C)(C2CC3C=CC2C3=O)COC1=O (some centres undefined)	> 100 µM	> 100 µM	> 100 µM	> 100 µM	> 100 µM	> 100 µM	> 100 µM	> 100 µM	> 100 µM	> 100 µM					
COc1cc(C2OC[C@@H]3C(=O)OC[C@H]23)cc(O)c1OC (some centres undefined)	> 100 µM	> 100 µM	> 100 µM		> 100 µM	> 100 µM	> 100 µM	> 100 µM	> 100 µM	> 100 µM					
C=C(Cl)C(C)(Cl)CCC(Cl)C(C)C (centres undefined)	> 100 µM	> 100 µM	> 100 µM	> 100 µM	> 100 µM	> 100 µM	> 100 µM	> 100 µM	> 100 µM	> 100 µM					
